# From patent publication US20240108740A1, “THERAPEUTIC COMPOSITIONS INCLUDING SPN10 AND USES THEREOF” (Stealth BioTherapeutics Inc., priority 2022, published 2024)
# Residues, ends and D or L forms follow the SMILES beside them.
# Assays:
# [1] = tested on: Sprague-Dawley rats; experiment: Example 47: wound contraction after burn injury; type: in vivo, rat; details: compared to burn control subjects
# Description: Sprague-Dawley rats (male, 300-350 g) will be pre-treated with (1 mg) peptide conjugates administered i.p. (approx. 3 mg/kg) 1 hour prior to burn (65° C. water, 25 seconds, lower back), followed by the topical application of peptide conjugates to the wound (1 mg), and 1 mg peptide conjugates administered i.p. once every 12 hours for 72 hours. Wounds will be observed for up to 3 weeks post-burn. A similar treatment regimen is followed for the groups treated with aromatic-cationic peptides (an equivalent molar dose of aromatic-cationic peptide based on the concentration of the aromatic-cationic peptide administered in the peptide conjugate treatment group), SPN10(s) (an equivalent molar dose of SPN10 based on the concentration of SPN10 administered in the peptide conjugate treatment group), or SPN10(s) in combination with aromatic-cationic peptides (e.g., an equivalent molar dose of SPN10 based on the concentration of SPN10 administered in the peptide conjugate treatment group and an equivalent molar dose of aromatic-cationic peptide based on the concentration of aromatic-cationic peptide administered in the peptide conjugate treatment group).
# [2] = tested on: mice; experiment: Example 57: Ang II-induced hypertensive cardiomyopathy; type: in vivo, mouse
# Description: Mouse experiments, drug delivery, echocardiography and blood pressure measurement. Six to ten mice will be included in each experimental group (Saline, Ang II, Ang II+peptide conjugate, Ang II+aromatic-cationic peptide, Ang II+SPN10, Ang II+SPN10+aromatic-cationic peptide, WT, Gαq, Gαq+peptide conjugate, Gαq+aromatic-cationic peptide, Gαq+SPN10, Gαq+SPN10+aromatic-cationic peptide). A pressor dose of Ang II (1.1 mg/kg/d) will be continuously administered for 4 weeks using subcutaneous Alzet 1004 osmotic minipumps, either alone or in the presence of with peptide conjugates (3 mg/kg/d), aromatic-cationic peptides (an equivalent molar dose of aromatic-cationic peptide based on concentration of the aromatic-cationic peptide administered in the peptide conjugate group), SPN10(s) (an equivalent molar dose of SPN10 based on concentration of SPN10 administered in the peptide conjugate group), or SPN10(s) in combination with aromatic-cationic peptides (e.g., an equivalent molar dose of SPN10 based on the concentration of SPN10 administered in the peptide conjugate treatment group and an equivalent molar dose of aromatic-cationic peptide based on the concentration of aromatic-cationic peptide administered in the peptide conjugate treatment group). Echocardiography will be performed at baseline and 4 weeks after pump implantation using a Siemens Acuson CV-70 equipped with a 13 MHz probe. […] MTI will be calculated as the ratio of the sum of isovolemic contraction and relaxation time to LV ejection time. […]
# Blood pressure will be measured in a separate group of mice by telemetry using an intravascular catheter PA-C 10 (DSI, MN), in which measurement will be performed every three hours starting from 2 days before pump placement until 2 days after Ang pump placement. […]
# Quantitative Pathology. […] Quantitative analysis of fibrosis will be performed by measuring the percentage of blue-staining fibrotic tissue relative to the total cross-sectional area of the ventricles. […]
smiles,measurement,setting,value
"N=C(N)NCCC[C@H](NC(=O)[C@@H](N)Cc1c[nH]c2ccccc12)C(=O)N[C@@H](Cc1c[nH]c2ccccc12)C(=O)N[C@@H](CCCCN)C(N)=O [SPN10, H-L-Trp-L-Arg-L-Trp-L-Lys-NH2] (H-WRWK-NH2)",rate of wound contraction,[1],slower rate of wound contraction
same,Ang II-induced ventricular fibrosis (trichrome),[2]; 4 weeks of Ang II,fully attenuated
same,cardiac mitochondrial protein carbonyls,[2]; 4 weeks of Ang II,significantly reduce cardiac mitochondrial protein carbonyls
same,Ang II-induced cardiomyopathy,"[2]; Ang II 1.1 mg/kg/d, 4 weeks",ameliorate Ang II-induced cardiomyopathy
